Measurements taken from patent publication US10828241B2, “Skin lightening compositions and methods” (SYTHEON LIMITED, priority 2018, dated 2020).

Tested on: skin pigmentation
Test: Clinical study: facial pigment intensity from digital photography
Format: in vivo, human
Details: lotion with 1.00% acetyl zingerone (Formulation 1A) applied to full face twice daily, group of 17

Compound: COc1cc(CC(C(C)=O)C(C)=O)ccc1O [Compd. 1, Acetyl Zingerone]
- Pigment Intensity (% Change), Average (4 weeks): −25.580%
- Pigment Intensity (% Change), Average (8 weeks): −25.601%
